Here are results for ten compounds from patent US8680275B2, “Fused heterocyclic compounds as orexin receptor modulators” (Janssen Pharmaceutica NV, priority 2009, dated 2014).

For assay [1], the target named is human orexin-2 receptor (Homo sapiens (Human), UniProt O43614). Briefly: Human orexin 2 receptor radioligand binding ([3H]-EMPA competition). As to conditions: HEK293 cells stably expressing human orexin-2 receptor; [3H]-EMPA 5 nM final; read-out: OR-2 Ki. As to the method: (§1) The in vitro affinity of the compounds for the human orexin-1 and orexin-2 receptors was determined by competitive radioligand binding using [^3H]SB SB674042 (1-(5-(2-fluoro-phenyl)-2-methyl-thiazol-4-yl)-1-((S)-2-(5-phenyl-(1,3,4)oxadiazol-2-ylmethyl)-pyrrolidin-1-yl)methanone) (Langmead et al., British Journal of Pharmacology 2004, 141:340-346.) and [^3H]EMPA (N-ethyl-2[(6-methoxy-pyridin-3-yl)-(toluene-2-sulfonyl)-amino]-N-pyridin-3-ylmethyl acetamide) (Malherbe et al., British Journal of Pharmacology, 2009, 156(8), 1326-1341), respectively.
Human Orexin 2 Receptor Radioligand Binding Studies
HEK293 stably expressing human orexin-2 receptor (Genebank accession number NM_001526) were grown to confluency in DMEM/F12 (Gibco, Cat #11039), in DMEM, 10% FBS, 1× Pen/Strep, 1× NaPyruvate, 1×HEPES, 600 ug/ml G418 media on 150 cm^2 tissue culture plates, washed with 5 mM EDTA in PBS (HyClone Dulbecco's Phosphate Buffered Saline 1× with Calcium and Magnesium, Cat #SH30264.01, hereafter referred to simply as PBS) and scraped into 50 ml tubes. After centrifugation (2K xG, 10 min at 4° C.), the supernatant was aspirated and the pellets frozen and stored at −80° C. Cells were resuspended in PBS in the presence of 1 tablet of protease inhibitor cocktail (Roche, Cat. #11836145001) per 50 mL. […] Competition binding experiments in 96 well polypropylene plates were performed using [^3H]-EMPA (Moravek Corporation, specific activity=27 Ci/mmol), diluted to a […] concentration in PBS (5 nM final concentration). Compounds were solubilized in 100% DMSO (Acros Organics, Cat. #61042-1000) and tested over a range of 7 concentrations (from 0.1 nM to 10 μM). The final concentration of DMSO in the reactions is equal to or less than 0.1%. Total and nonspecific binding was determined in the absence and presence of 10 μM (N-[2-(3,4-dimethoxyphenyl)ethyl]-N-methylnaphthalene-1-carboxamide, CAS Registry #1089563-88-1). The total volume of each reaction is 200 μL (20 μL of diluted compounds, 80 μL of [^3H]-EMPA diluted in PBS and 100 μL of the cell suspension). Reactions were run for 60 min at room temperature and terminated by filtration through GF/C filter plates (PerkinElmer, Cat. #6005174) presoaked in 0.3% polyethylenimine using the cell harvester (Perkin Elmer Filtermate). The plates were washed 3 times by aspirating 30 ml PBS through the plates. Plates were dried in 55° C. oven for 60 min, scintillation fluid was added, and the radioactivity was counted on a Topcount (Packard).

Assay [2] addresses human orexin 1 receptor (Homo sapiens (Human), UniProt O43613). Briefly: Human orexin 1 receptor radioligand binding ([3H]-SB674042 competition). As to conditions: CHO cells stably expressing human orexin 1 receptor; [3H]-SB674042 4 nM final; read-out: OR-1 Ki. As to the method:
as §1
Human Orexin 1 Receptor Radioligand Binding Studies
Chinese ovary cells (CHO) stably expressing human orexin 1 receptor (Genebank accession number NM_001526) were grown to confluency in DMEM/F12 (Gibco, Cat #11039), 10% FBS, 1× Pen/Strep, 600 μg/mL G418 media on 150 cm^2 tissue culture plates, washed with 5 mM EDTA in PBS (HyClone Dulbecco's Phoshpate Buffered Saline 1× with Calcium and Magnesium, Cat #SH30264.01, hereafter referred to simply as PBS) and scraped into 50 ml tubes. After centrifugation (2K xG, 10 min at 4° C.), the supernatant was aspirated and the pellets frozen and stored at −80° C. Cells were resuspended in PBS in the presence of 1 tablet of protease inhibitor cocktail (Roche, Cat. #11836145001) per 50 mL. […] Compounds were solubilized in 100% DMSO (Acros Organics, Cat. #61042-1000) and tested over a range of 7 concentrations (from 0.1 nM to 10 μM). The final concentration of DMSO in the reactions is equal to or less than 0.1%. Total and nonspecific binding was determined in the absence and presence of 10 μM (1-(6,8-difluoro-2-methylquinolin-4-yl)-3-[4-(dimethylamino)phenyl]urea, CAS Registry #288150-92-5). The total volume of each reaction is 200 μL (20 μL of diluted compounds, 80 μL of [^3H]-SB674042 diluted in PBS and 100 μL of the cell suspension). Reactions were run for 60 min at room temperature and terminated by filtration through GF/C filter plates (PerkinElmer, Cat. #6005174) presoaked in 0.3% polyethylenimine using the cell harvester (PerkinElmer Filtermate). The plates were washed 3 times by aspirating 30 ml PBS through the plates. Plates were dried in 55° C. oven for 60 min, scintillation fluid was added, and the radioactivity was counted on a Topcount (Packard).

Each structure is given as a SMILES string.

human orexin 1 receptor, sequence (O43613 whole entry): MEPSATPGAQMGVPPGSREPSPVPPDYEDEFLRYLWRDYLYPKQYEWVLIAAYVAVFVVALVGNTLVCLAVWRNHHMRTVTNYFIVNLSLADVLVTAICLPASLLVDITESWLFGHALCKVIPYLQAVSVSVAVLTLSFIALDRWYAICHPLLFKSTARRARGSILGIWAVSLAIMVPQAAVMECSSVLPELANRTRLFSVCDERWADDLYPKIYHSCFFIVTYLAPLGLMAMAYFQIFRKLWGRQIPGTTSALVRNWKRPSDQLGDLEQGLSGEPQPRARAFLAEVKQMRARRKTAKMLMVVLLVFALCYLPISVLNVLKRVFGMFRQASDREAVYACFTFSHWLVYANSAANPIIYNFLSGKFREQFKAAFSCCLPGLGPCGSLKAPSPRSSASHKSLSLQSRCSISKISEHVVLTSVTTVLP
human orexin-2 receptor, sequence (O43614 whole entry): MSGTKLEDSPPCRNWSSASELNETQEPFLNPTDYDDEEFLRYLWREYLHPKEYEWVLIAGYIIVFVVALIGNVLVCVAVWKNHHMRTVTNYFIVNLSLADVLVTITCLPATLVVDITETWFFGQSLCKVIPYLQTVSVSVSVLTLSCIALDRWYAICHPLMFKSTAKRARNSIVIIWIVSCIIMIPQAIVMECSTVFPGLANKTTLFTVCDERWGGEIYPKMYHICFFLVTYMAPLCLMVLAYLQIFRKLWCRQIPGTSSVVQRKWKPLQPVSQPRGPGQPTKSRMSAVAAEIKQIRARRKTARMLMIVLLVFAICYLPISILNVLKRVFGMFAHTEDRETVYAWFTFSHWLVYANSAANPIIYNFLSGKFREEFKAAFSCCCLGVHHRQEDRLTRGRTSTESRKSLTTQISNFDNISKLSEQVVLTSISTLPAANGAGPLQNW

With `Cc1cc(N2C[C@@H]3CCN(C(=O)c4ccc(F)cc4-n4nccn4)C[C@@H]32)nc(C(F)(F)F)n1` [Example 34, (1R,6S)-(4-Fluoro-2-[1,2,3]triazol-2-yl-phenyl)-[8-(6-methyl-2-trifluoromethyl-pyrimidin-4-yl)-3,8-diaza-bicyclo[4.2.0]oct-3-yl]-methanone], the Ki (commonly the dissociation constant of the complex between target and ligand, obtained from inhibition or displacement) came to 50 nM in assay [1] and 1040 nM in assay [2].

On to `Cc1cc(N2C[C@@H]3CCN(C(=O)c4ccccc4-n4nccn4)C[C@@H]32)nc(C(F)(F)F)n1` [Example 35, (1R,6S)-[8-(6-Methyl-2-trifluoromethyl-pyrimidin-4-yl)-3,8-diaza-bicyclo[4.2.0]oct-3-yl]-(2-[1,2,3]triazol-2-yl-phenyl)-methanone], for which the Ki in assay [1] worked out at 24 nM; in assay [2], 117 nM.

`CN(C)c1nc(N2C[C@@H]3CCN(C(=O)c4ccccc4-n4nccn4)C[C@@H]32)cc(C(F)(F)F)n1` [Example 36, (1R,6S)-[8-(2-Dimethylamino-6-trifluoromethyl-pyrimidin-4-yl)-3,8-diaza-bicyclo[4.2.0]oct-3-yl]-(2-[1,2,3]triazol-2-yl-phenyl)-methanone]: the Ki in assay [1] came out at 5 nM; in assay [2], 11 nM.

Regarding `CN(C)c1nc(N2C[C@@H]3CCN(C(=O)c4c(F)cccc4-n4nccn4)C[C@@H]32)cc(C(F)(F)F)n1` [Example 37, (1R,6S)-[8-(2-Dimethylamino-6-trifluoromethyl-pyrimidin-4-yl)-3,8-diaza-bicyclo[4.2.0]oct-3-yl]-(2-fluoro-6-[1,2,3]triazol-2-yl-phenyl)-methanone], the values for the Ki in assay [1] and in assay [2] were 10 nM and 19 nM, respectively.

With `CN(C)c1nc(N2C[C@@H]3CCN(C(=O)c4ccc(F)cc4-n4nccn4)C[C@@H]32)cc(C(F)(F)F)n1` [Example 38, (1R,6S)-[8-(2-Dimethylamino-6-trifluoromethyl-pyrimidin-4-yl)-3,8-diaza-bicyclo[4.2.0]oct-3-yl]-(4-fluoro-2-[1,2,3]triazol-2-yl-phenyl)-methanone], the values for the Ki in assay [1] and in assay [2] were 16 nM and 77 nM, respectively.

`O=C(c1ccccc1-n1nccn1)N1CC[C@H]2CN(c3cnc4ccccc4n3)[C@H]2C1` [Example 39, (1R,6S)-(8-Quinoxalin-2-yl-3,8-diaza-bicyclo[4.2.0]oct-3-yl)-(2-[1,2,3]triazol-2-yl-phenyl)methanone]: the results for the Ki in assay [1] and in assay [2] were 20 nM and 32 nM, respectively.

With `Cc1cc(N2C[C@@H]3CCN(C(=O)c4cc(F)ccc4-n4nccn4)C[C@@H]32)nc(N(C)C)n1` [Example 40, (1R,6S)-[8-(2-Dimethylamino-6-methyl-pyrimidin-4-yl)-3,8-diaza-bicyclo[4.2.0]oct-3-yl]-(5-fluoro-2-[1,2,3]triazol-2-yl-phenyl)-methanone], the Ki in assay [1] was 91 nM; in assay [2] it was 1210 nM.

`Cc1cc(N2C[C@@H]3CCN(C(=O)c4ccccc4-n4nccn4)C[C@@H]32)nc(N(C)C)n1` [Example 43, (1R,6S)-[8-(2-Dimethylamino-6-methyl-pyrimidin-4-yl)-3,8-diaza-bicyclo[4.2.0]oct-3-yl]-(2-[1,2,3]triazol-2-yl-phenyl)-methanone]: the Ki in assay [1] came out at 90 nM; in assay [2] it was 475 nM.

`Cc1cc(N2C[C@@H]3CCN(C(=O)c4c(F)cccc4-n4nccn4)C[C@@H]32)nc(N(C)C)n1` [Example 44, (1R,6S)-[8-(2-Dimethylamino-6-methyl-pyrimidin-4-yl)-3,8-diaza-bicyclo[4.2.0]oct-3-yl]-(2-fluoro-6-[1,2,3]triazol-2-yl-phenyl)-methanone]: the results for the Ki in assay [1] and in assay [2] were 73 nM and 480 nM, respectively.

Consider `CN(C)c1nc(N2C[C@@H]3CCN(C(=O)c4cc(F)ccc4-n4nccn4)C[C@@H]32)cc(C(F)(F)F)n1` [Example 46, (1R,6S)-[8-(2-Dimethylamino-6-trifluoromethyl-pyrimidin-4-yl)-3,8-diaza-bicyclo[4.2.0]oct-3-yl]-(5-fluoro-2-[1,2,3]triazol-2-yl-phenyl)-methanone], for which the Ki in assay [1] stood at 15 nM; in assay [2], 47 nM.
